# Results as given in patent US9944597B2, “Polysubstituted pyrroles having microtubule-disrupting, cytotoxic and antitumor activities and methods of use thereof” (THE BOARD OF REGENTS OF THE UNIVERSITY OF TEXAS SYSTEM, priority 2013, dated 2018).
# Where two headings read alike, the source gives them in different places.
# Key:
# [1] = tested on: MDA-MB-435 (human melanoma cancer cells); test: Antiproliferative SRB assay, MDA-MB-435; format: cell-based; details: Homo sapiens, MDA-MB-435, read-out: MDA-MB-435 Anti-Proliferative Activity, IC50
# Description: (§1) Cell Culture. Various representative cancer and other cell lines were sourced and grown as described previously [Mooberry, S. L., et al., Mol. Pharm. 72, 132-140 (2007)]. MDA-MB-435 (human melanoma cancer cells), and MDA-MB-231 (human breast cancer cells) were grown in IMEM Richter's Medium (Life Technologies, Grand Island, N.Y.) with 10% FBS (Hyclone, Logan, Utah) and 25 μg/mL gentamicin sulfate (Life Technologies). A-10 (embryonic rat vascular smooth muscle cells) and HeLa (human cervical cancer cells), SK-OV-3 (human ovarian cancer cells) and SK-OV-3-MDR-1-M6/6 (a clone of the SK-OV-3 that was generated from SK-OV-3 cells by adenovirus-mediated expression of MDR1) were grown in Basal Medium Eagle (BME, Sigma-Aldrich, St. Louis, Mo.) containing Earle's salts, 50 μg/ml gentamicin sulfate, and 10% FBS. HeLa cells (a single-cell clone derived from transduction of HeLa cells with wild-type (WT) βIII-tubulin) were grown in Dulbecco's Modified Eagle's Medium (DMEM, Life Technologies) containing 50 μg/mL gentamicin sulfate and 10% FBS.
# (§2) Antiproliferative Effects. The pyrrole compounds were evaluated for their antiproliferative effects in a panel of cancer cell lines. Cells were plated into 96-well plates at predetermined densities and allowed to attach and proliferate for 24 hr, and then the compounds were added. After a 48 hr exposure to the compounds, the cells were fixed with trichloroacetic acid and cellular protein was determined using the sulforhodamine B (SRB) assay (Skehan et al., J. Natl. Cancer Inst. 82, 1107-12, (1990); Boyd and Paull Drug Devel. Res. 34, 91-109, (1995)). Concentration response curves were constructed, and the IC50 (the concentration required to inhibit proliferation by 50%) values were determined from the linear portions of the log concentration-response curves as described previously [Tinley, T. L., et al., Cancer Res. 63, 3211-3220, (2003)] as shown in Table 48.
# [2] = tested on: HeLa (human cervical cancer cells); test: Antiproliferative SRB assay, HeLa; format: cell-based; details: Homo sapiens, HeLa
# Description: as §1, §2
# (§3) First, drug resistance mediated by the expression of βIII tubulin was evaluated in an isogenic HeLa cell line pair. Expression of the βIII tubulin isotype is associated with clinical drug resistance to the taxanes in ovarian cancer, non small-cell lung cancer and breast cancer [Galmarini, C. M., et al., Clin. Cancer Res. 14, 4511-4516 (2008)]. Secondly, drug resistance mediated by the expression of the drug efflux pump protein, Pgp, was evaluated in the isogenic SK-OV-3 cell line pair. The expression of Pgp can lead to lower intracellular drug concentrations and diminished cytotoxic effects both in vitro and in vivo. All tubulin-binding anticancer drugs used currently in the clinic, except cabazitaxel, are substrates for Pgp, thus limiting their utility in drug resistant tumors [Penson, R. T., et al., Gynecol. Oncol. 93, 98-106 (2004)]. Differences in sensitivity between the parent and transformed cell line, indicative of resistance, was determined by calculating relative resistance (Rr) values in the two pairs of isogenic cell lines (dividing the IC50 of the expressing cell line by the IC50 of the parental cell line).
# [3] = tested on: SK-OV-3 (human ovarian cancer cells); test: Antiproliferative SRB assay, SK-OV-3; format: cell-based; details: Homo sapiens
# Description: as §1, §2
# as §3, with “The expression of Pgp can lead to lower intracellular drug concentrations and diminished cytotoxic effects both in vitro and in vivo.” left out
# HeLa WT-β-III cells = test: Antiproliferative SRB assay, βIII-tubulin expressing HeLa; format: cell-based, human; details: for IC50: Homo sapiens, HeLa, Table 49, βIII tubulin expressing line, 48 hr, SRB assay; for Rr (β-III): relative resistance: IC50 of expressing line divided by IC50 of parental HeLa
# Description: as §1, §2, §3
# SK-OV-3-MDR-1-6/6 cells = test: Antiproliferative SRB assay, Pgp expressing SK-OV-3; format: cell-based, human; details: for IC50: Homo sapiens, SK-OV-3, Table 49, Pgp expressing line, 48 hr, SRB assay; for Rr (Pgp): relative resistance: IC50 of expressing line divided by IC50 of parental SK-OV-3
# Description: as §1, §2
# as §3, with “The expression of Pgp can lead to lower intracellular drug concentrations and diminished cytotoxic effects both in vitro and in vivo.” left out
# A-10 cells = test: Cellular microtubule loss by indirect immunofluorescence; format: cell-based, rat; details: Rattus norvegicus, A10; Table 50; concentration causing approximately 50% loss of interphase microtubules; read-out: EC50 Values (nM) for Microtubule Loss in A-10 cells
# Description: The effects of representative compounds on cellular microtubules were evaluated in A-10 (embryonic rat vascular smooth muscle cell line) cells using indirect immunofluorescence techniques as previously described (Tinley et al., Cancer Res. 63, 3211-20 (2003)). Cells were visualized using a Nikon Eclipse 80i fluorescence microscope and NIS Elements software. Changes in both interphase and mitotic microtubules were noted and photographed. The EC50 values, the concentration that causes approximately 50% loss of interphase microtubules was determined by evaluating a range of concentrations of each compound and the percent cellular microtubule depolymerization that was observed visually at each concentration was noted.
# Microtubules were visualized by indirect immunofluorescence using a β-tubulin antibody, and the DNA was visualized with DAPI. A representative concentration response curve for NT-7-16 is also shown in FIG. 1 that was used to calculate its corresponding EC50 for microtubule loss. Concentration response curves for microtubule loss were plotted using data from at least three experiments for each compound and the corresponding EC50 values for microtubule loss are presented in Table 50.
# [4] = Table 48, 48 hr exposure, SRB assay
# [5] = Table 48, 48 hr exposure, read-out: HeLa Anti-Proliferative Activity, IC50
# [6] = Table 49, parental line, 48 hr, read-out: HeLa IC50
# [7] = SK-OV-3, Table 48, 48 hr exposure, read-out: SK-OV-3 Anti-Proliferative Activity, IC50
# [8] = SK-OV-3, Table 49, parental line, 48 hr, read-out: SK-OV-3 IC50
smiles,measurement,setting,value
"CCOC(=O)c1[nH]c(C=NO)c(-c2ccc(OC)c(OC)c2OC)c1Cl (mixture of isomers) [Example 21, Cis/Trans-3-chloro-4-(2,3,4-trimethoxyphenyl)-5-oximino-1H-pyrrole 2-carboxylic acid ethyl ester]",IC50,[1]; [4],87.7 ± 10 nM
same,IC50,[1]; Table 52,87.7 ± 10 nM
same,IC50,[2]; [5],123 ± 6.5 nM
same,IC50,[2]; [6],123 ± 6.5 nM
same,IC50,[3]; [7],175 ± 30.4 nM
same,IC50,[3]; [8],175 ± 30.4 nM
same,IC50,HeLa WT-β-III cells,109 ± 9.5 nM
same,Rr (β-III),HeLa WT-β-III cells,0.9
same,IC50,SK-OV-3-MDR-1-6/6 cells,419 ± 30.4 nM
same,Rr (Pgp),SK-OV-3-MDR-1-6/6 cells,1.9
same,EC50,A-10 cells,170 nM
same,melting point,,135 to 140 °C
"CCOC(=O)c1[nH]c(C=O)c(-c2ccc(OC)c(OC)c2OC)c1Cl [Example 3, 3-Chloro-4-(2,3,4-trimethoxyphenyl)-5-formyl-1H-pyrrole 2-carboxylic acid ethyl ester]",IC50,[1]; [4],64 ± 8.5 nM
same,IC50,[1]; Table 52,64 ± 8.5 nM
same,IC50,[2]; [5],43.5 ± 1.7 nM
same,IC50,[2]; [6],43.5 ± 1.7 nM
same,IC50,[3]; [7],67.8 ± 16.2 nM
same,IC50,[3]; [8],67.8 ± 16.2 nM
same,IC50,HeLa WT-β-III cells,106 ± 6.6 nM
same,Rr (β-III),HeLa WT-β-III cells,2.4
same,IC50,SK-OV-3-MDR-1-6/6 cells,76 ± 22.9 nM
same,Rr (Pgp),SK-OV-3-MDR-1-6/6 cells,1.1
same,EC50,A-10 cells,107 nM
same,melting point,,193 to 195 °C
"CCOC(=O)c1[nH]c(C=O)c(-c2ccc(OC)c(OC)c2OC)c1I [Example 4, 3-Iodo-4-(2,3,4-trimethoxyphenyl)-5-formyl-1H-pyrrole 2-carboxylic acid ethyl ester]",IC50,[1]; [4],76 ± 0.6 nM
same,IC50,[1]; Table 52,76 ± 0.6 nM
same,IC50,[2]; [5],39.9 ± 3.1 nM
same,IC50,[2]; [6],39.9 ± 3.1 nM
same,IC50,[3]; [7],66.9 ± 5.8 nM
same,IC50,[3]; [8],66.9 ± 5.8 nM
same,IC50,HeLa WT-β-III cells,100 ± 2 nM
same,Rr (β-III),HeLa WT-β-III cells,2.5
same,IC50,SK-OV-3-MDR-1-6/6 cells,87 ± 23.6 nM
same,Rr (Pgp),SK-OV-3-MDR-1-6/6 cells,1.3
same,EC50,A-10 cells,129 nM
same,melting point,,126 to 128 °C
"CCOC(=O)c1[nH]c(C(=O)O)c(-c2ccc(OC)c(OC)c2OC)c1Br [Example 9, 3-Bromo-4-(2,3,4-trimethoxyphenyl)-5-carboxy-1H-pyrrole 2-carboxylic acid ethyl ester]",IC50,[1]; [4],1530 nM
same,IC50,[1]; Table 52,1530 nM
same,IC50,[2]; [5],2340 nM
same,IC50,[2]; [6],2340 nM
same,EC50,A-10 cells,4600 nM
same,melting point,,173 to 175 °C
"CCOC(=O)c1[nH]c(CN)c(-c2ccc(OC)c(OC)c2OC)c1Br [Example 13, 5-(Aminomethylene)-3-Bromo-4-(2,3,4-trimethoxyphenyl)-1H-pyrrole 2-carboxylic acid ethyl ester]",IC50,[1]; [4],15.8 ± 0.9 nM
same,IC50,[1]; Table 52,15.8 ± 0.9 nM
same,IC50,[2]; [5],19.5 ± 0.6 nM
same,IC50,[2]; [6],19.5 ± 0.6 nM
same,IC50,[3]; [7],23.1 ± 1.8 nM
same,IC50,[3]; [8],23.1 ± 1.8 nM
same,IC50,HeLa WT-β-III cells,15.6 ± 0.4 nM
same,Rr (β-III),HeLa WT-β-III cells,0.8
same,IC50,SK-OV-3-MDR-1-6/6 cells,22.4 ± 0.9 nM
same,Rr (Pgp),SK-OV-3-MDR-1-6/6 cells,1.0
same,EC50,A-10 cells,36 nM
same,melting point,,176 to 178 °C
CCOC(=O)c1[nH]c(CN)c(-c2ccc(OC)c(OC)c2OC)c1Cl [Example 14],IC50,[1]; [4],13 ± 0.4 nM
same,IC50,[1]; Table 52,13 ± 0.4 nM
same,IC50,[2]; [5],15 ± 0.5 nM
same,IC50,[2]; [6],15 ± 0.5 nM
same,IC50,[3]; [7],27.8 ± 1.3 nM
same,IC50,[3]; [8],27.8 ± 1.3 nM
same,IC50,HeLa WT-β-III cells,12.3 ± 0.3 nM
same,Rr (β-III),HeLa WT-β-III cells,0.8
same,IC50,SK-OV-3-MDR-1-6/6 cells,23.6 ± 1 nM
same,Rr (Pgp),SK-OV-3-MDR-1-6/6 cells,0.8
same,EC50,A-10 cells,35 nM
same,melting point,,143 to 145 °C
"CCCNC=C1NC(C(=O)OCC)C(Br)=C1c1ccc(OC)c(OC)c1OC (centres unmarked) [Example 17, 3-Bromo-5-(N-Propylaminomethylene)-4-(2,3,4-trimethoxyphenyl)-1H-pyrrole 2-carboxylic acid ethyl ester]",IC50,[1]; [4],2630 nM
same,IC50,[1]; Table 52,2630 nM
same,IC50,[2]; [5],2450 nM
same,IC50,[2]; [6],2450 nM
same,IC50,[3]; [7],3020 nM
same,IC50,[3]; [8],3020 nM
same,IC50,HeLa WT-β-III cells,2010 nM
same,Rr (β-III),HeLa WT-β-III cells,0.8
same,IC50,SK-OV-3-MDR-1-6/6 cells,3570 nM
same,Rr (Pgp),SK-OV-3-MDR-1-6/6 cells,1.2
same,EC50,A-10 cells,4900 nM
same,melting point,,143 to 145 °C
"CCCNC=C1NC(C(=O)OCC)C(Cl)=C1c1ccc(OC)c(OC)c1OC (centres unmarked) [Example 18, 3-Chloro-5-(N-Propylaminomethylene)-4-(2,3,4-Trimethoxyphenyl)-1H-pyrrole 2-carboxylic acid ethyl ester]",IC50,[1]; [4],12.6 ± 0.4 nM
same,IC50,[1]; Table 52,12.6 ± 0.4 nM
same,IC50,[2]; [5],14.3 ± 0.8 nM
same,IC50,[2]; [6],14.3 ± 0.8 nM
same,IC50,[3]; [7],20.7 ± 1.9 nM
same,IC50,[3]; [8],20.7 ± 1.9 nM
same,IC50,HeLa WT-β-III cells,11.2 ± 0.4 nM
same,Rr (β-III),HeLa WT-β-III cells,0.8
same,IC50,SK-OV-3-MDR-1-6/6 cells,19 ± 1 nM
same,Rr (Pgp),SK-OV-3-MDR-1-6/6 cells,0.9
same,EC50,A-10 cells,31 nM
same,melting point,,166 to 168 °C
"CCOC(=O)c1[nH]c(Cl)c(-c2ccc(OC)c(OC)c2OC)c1Cl [Example 23, 3,5-Dichloro-4-(2,3,4-Trimethoxyphenyl)-1H-pyrrole-2-carboxylic acid ethyl ester]",IC50,[1]; [4],116 ± 4.3 nM
same,IC50,[2]; [5],131 ± 8 nM
same,IC50,[2]; [6],131 ± 8 nM
same,IC50,[3]; [7],211 nM
same,IC50,[3]; [8],211 nM
same,IC50,HeLa WT-β-III cells,137 nM
same,Rr (β-III),HeLa WT-β-III cells,1.0
same,IC50,SK-OV-3-MDR-1-6/6 cells,231 ± 118 nM
same,Rr (Pgp),SK-OV-3-MDR-1-6/6 cells,1.1
same,EC50,A-10 cells,1060 nM
same,melting point,,151 to 153 °C
